For 23 compounds, IC50 results are on record in patent publication US12643910B2, “Substituted pyrazolo[3,4-b]pyridines as ectonucleotide pyrophosphatase/phosphodiesterase 1 (ENPP1) modulators” (SANFORD BURNHAM PREBYS MEDICAL DISCOVERY INSTITUTE, priority 2019, dated 2026).

The target in one experiment is T1, ENPP3 (Homo sapiens, UniProt O14638).
T1 sequence (O14638 1-875): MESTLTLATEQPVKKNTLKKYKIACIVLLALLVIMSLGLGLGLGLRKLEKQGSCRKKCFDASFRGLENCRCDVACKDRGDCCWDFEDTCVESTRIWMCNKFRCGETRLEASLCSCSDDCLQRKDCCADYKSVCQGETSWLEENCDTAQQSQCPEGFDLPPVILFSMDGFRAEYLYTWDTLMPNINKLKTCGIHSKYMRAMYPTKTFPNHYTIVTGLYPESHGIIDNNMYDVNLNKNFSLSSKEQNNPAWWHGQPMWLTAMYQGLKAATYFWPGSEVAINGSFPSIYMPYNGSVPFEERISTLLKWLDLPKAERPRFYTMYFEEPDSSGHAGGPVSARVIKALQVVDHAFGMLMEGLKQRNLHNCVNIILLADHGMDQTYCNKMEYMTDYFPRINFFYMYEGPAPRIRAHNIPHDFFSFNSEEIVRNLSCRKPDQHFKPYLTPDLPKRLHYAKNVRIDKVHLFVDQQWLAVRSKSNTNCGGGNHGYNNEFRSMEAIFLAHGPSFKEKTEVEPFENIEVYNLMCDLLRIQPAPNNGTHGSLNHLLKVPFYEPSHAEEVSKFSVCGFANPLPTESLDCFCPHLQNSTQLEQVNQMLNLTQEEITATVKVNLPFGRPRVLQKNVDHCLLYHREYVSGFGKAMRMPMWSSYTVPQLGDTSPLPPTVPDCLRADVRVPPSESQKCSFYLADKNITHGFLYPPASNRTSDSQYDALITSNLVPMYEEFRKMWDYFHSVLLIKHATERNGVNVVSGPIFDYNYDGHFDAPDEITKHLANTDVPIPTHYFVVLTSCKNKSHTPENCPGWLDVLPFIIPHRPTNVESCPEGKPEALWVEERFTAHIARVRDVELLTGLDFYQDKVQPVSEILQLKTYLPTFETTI
The experiment can be described thus: ENPP3 Km ATP assay. In kind it is biochemical. The note with it: ATP at Km.

In a further experiment the target is T2, human ENPP1 (Homo sapiens, UniProt P22413).
T2 construct: made in house
T2 sequence (P22413 1-925): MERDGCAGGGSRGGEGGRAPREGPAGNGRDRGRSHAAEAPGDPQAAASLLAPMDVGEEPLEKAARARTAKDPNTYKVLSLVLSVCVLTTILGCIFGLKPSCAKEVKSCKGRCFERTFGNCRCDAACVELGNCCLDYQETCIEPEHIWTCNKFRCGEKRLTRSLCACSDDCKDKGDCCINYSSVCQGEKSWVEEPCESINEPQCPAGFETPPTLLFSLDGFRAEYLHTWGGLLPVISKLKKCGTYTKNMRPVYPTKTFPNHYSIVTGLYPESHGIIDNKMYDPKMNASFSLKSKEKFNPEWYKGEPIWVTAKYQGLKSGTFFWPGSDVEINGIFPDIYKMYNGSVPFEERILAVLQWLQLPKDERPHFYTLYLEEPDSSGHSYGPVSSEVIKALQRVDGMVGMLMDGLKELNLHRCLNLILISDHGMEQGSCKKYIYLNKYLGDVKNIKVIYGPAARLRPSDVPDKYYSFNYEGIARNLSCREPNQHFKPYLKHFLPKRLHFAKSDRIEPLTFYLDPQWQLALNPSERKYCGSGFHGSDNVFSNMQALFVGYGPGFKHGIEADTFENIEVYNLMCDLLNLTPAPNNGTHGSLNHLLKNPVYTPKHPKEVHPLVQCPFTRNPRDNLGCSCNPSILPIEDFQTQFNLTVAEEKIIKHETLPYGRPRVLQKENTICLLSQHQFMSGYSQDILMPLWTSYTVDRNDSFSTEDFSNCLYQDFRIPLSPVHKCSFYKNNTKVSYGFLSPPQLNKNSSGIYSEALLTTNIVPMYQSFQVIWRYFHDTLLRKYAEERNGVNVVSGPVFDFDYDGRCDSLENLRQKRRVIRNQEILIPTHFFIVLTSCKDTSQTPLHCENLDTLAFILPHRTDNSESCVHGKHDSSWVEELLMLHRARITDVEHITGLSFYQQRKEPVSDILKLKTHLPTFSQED
The experiment can be described thus: ENPP1 assay with ATP substrate (Transcreener AMP2/GMP2 TR-FRET). It counts as biochemical. The following applies: 1 hour at room temperature. Put shortly:
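5′-AMP from ATP hydrolysis (300 nM ATP stock added; enzyme added as 8.5 μM stock) detected by competitive TR-FRET. Buffer: 50 mM Tris pH 7.5, 1 mM TCEP, 2 mM MgCl2, 0.005% Tween 20, 1% DMSO. Reaction 1 h at room temperature, EDTA stop. IC50 from 2-parameter variable-slope fit.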

Broadly, the IC50 is the concentration needed to halve the response being measured. Read a low IC50 as higher potency. As for `CCN(CC)c1cc(NCc2ccc(S(N)(=O)=O)cc2)c2cnn(C)c2n1` [Example 2.79, 4-(((6-(Diethylamino)-1-methyl-1H-pyrazolo[3,4-b]pyridin-4-yl)amino)methyl)-benzenesulfonamide], the IC50 at ENPP3 was 1 to 20 µM; on human ENPP1, over 20 µM.

For the compound `CCCCNc1cc(NCc2ccc(S(N)(=O)=O)cc2)c2cnn(C)c2n1` [Example 2.80, 4-(((6-(Butylamino)-1-methyl-1H-pyrazolo[3,4-b]pyridin-4-yl)amino)methyl)-benzenesulfonamide], the IC50 against ENPP3 and against human ENPP1 was 1 to 20 µM each time.

With `Cn1ncc2c(NCc3ccc(S(N)(=O)=O)cc3)cc(NCCO)nc21` [Example 2.81, 4-(((6-((2-Hydroxyethyl)amino)-1-methyl-1H-pyrazolo[3,4-b]pyridin-4-yl)amino)methyl)-benzenesulfonamide], the IC50 on ENPP3 and on human ENPP1 was 1 to 20 µM throughout.

Turning to `Cn1ncc2c(NCc3ccc(S(N)(=O)=O)cc3)cc(N3CCOCC3)nc21` [Example 2.82, 4-(((1-Methyl-6-morpholino-1H-pyrazolo[3,4-b]pyridin-4-yl)amino)methyl)-benzenesulfonamide], the IC50 on ENPP3 and at human ENPP1 was 1 to 20 µM throughout.

As for `CCn1ncc2c(NCc3ccc(S(N)(=O)=O)cc3)nc(Cl)nc21` [Example 2.83, 4-((6-Chloro-1-ethyl-1H-pyrazolo[3,4-d]pyrimidin-4-yl)aminomethyl)benzenesulfonamide], the IC50 against ENPP3 was 1 to 20 µM; at human ENPP1 it was under 0.1 µM.

For `NS(=O)(=O)c1ccc(CNc2nc(Cl)nc3c2cnn3C2CC2)cc1` [Example 2.84, 4-((6-Chloro-1-cyclopropyl-1H-pyrazolo[3,4-d]pyrimidin-4-yl)aminomethyl)-benzenesulfonamide], the figures for the IC50 against ENPP3 and against human ENPP1 were 1 to 20 µM and under 0.1 µM, respectively.

In the case of `Cn1ncc2c(NCc3ccc(S(N)(=O)=O)s3)nc(Cl)nc21` [Example 2.85, 5-((6-Chloro-1-methyl-1H-pyrazolo[3,4-d]pyrimidin-4-yl)aminomethyl)thiophene-2-sulfonamide], the IC50 at ENPP3 and at human ENPP1 was 0.1 to 1 µM in each case.

As for `NS(=O)(=O)c1ccc(CNc2nc(Cl)nc3c2cnn3CC(F)(F)F)cc1` [Example 2.86, 4-((6-Chloro-1-(2,2,2-trifluoroethyl)-1H-pyrazolo[3,4-d]pyrimidin-4-yl)aminomethyl)-benzenesulfonamide], the IC50 against ENPP3 and on human ENPP1 was 1 to 20 µM throughout.

As for `Cn1nc(Br)c2c(NCc3ccc(S(N)(=O)=O)cc3)nc(Cl)nc21` [Example 2.87, 4-((3-Bromo-6-chloro-1-methyl-1H-pyrazolo[3,4-d]pyrimidin-4-yl)aminomethyl)-benzenesulfonamide], the IC50 against ENPP3 and at human ENPP1 was under 0.1 µM in each case.

Consider `Cc1nc(NCc2ccc(S(N)(=O)=O)cc2)c2c(Br)nn(C)c2n1` [Example 2.89, 4-((3-Bromo-1,6-dimethyl-1H-pyrazolo[3,4-d]pyrimidin-4-yl)aminomethyl)-benzenesulfonamide], for which the IC50 on ENPP3 and at human ENPP1 was under 0.1 µM each time.

For the compound `Cn1nc(Cl)c2c(NCc3ccc(S(N)(=O)=O)cc3)ncnc21` [Example 2.90, 4-((3-Chloro-1-methyl-1H-pyrazolo[3,4-d]pyrimidin-4-yl)aminomethyl)-benzenesulfonamide], the IC50 against ENPP3 and against human ENPP1 was 0.1 to 1 µM throughout.

Take `Cn1ncc2c(NCc3ccc(S(N)(=O)=O)cc3)nc(Cl)nc21` [Example 2.92, 4-((6-Chloro-1-methyl-1H-pyrazolo[3,4-d]pyrimidin-4-yl)aminomethyl)-benzenesulfonamide]: the IC50 against ENPP3 is 0.1 to 1 µM; at human ENPP1, under 0.1 µM.

For the compound `CCOc1nc(NCc2ccc(S(N)(=O)=O)cc2)c2cnn(C)c2n1` [Example 2.93, 4-((6-Ethoxy-1-methyl-1H-pyrazolo[3,4-d]pyrimidin-4-yl)aminomethyl)-benzenesulfonamide], the IC50 is 0.1 to 1 µM against ENPP3 and under 0.1 µM on human ENPP1.

As for `COc1nc(NCc2ccc(S(N)(=O)=O)cc2)c2cnn(C)c2n1` [Example 2.94, 4-((6-Methoxy-1-methyl-1H-pyrazolo[3,4-d]pyrimidin-4-yl)aminomethyl)-benzenesulfonamide], the IC50 at ENPP3 is 0.1 to 1 µM; against human ENPP1 it was under 0.1 µM.

Regarding `COc1nc(NCc2ccc(S(N)(=O)=O)s2)c2cnn(C)c2n1` [Example 2.95, 5-((6-Methoxy-1-methyl-1H-pyrazolo[3,4-d]pyrimidin-4-yl)aminomethyl)thiophene-2-sulfonamide], the IC50 on ENPP3 and on human ENPP1 was 0.1 to 1 µM each time.

As for `COc1nc(NCc2ccc(S(N)(=O)=O)cc2)c2c(Br)nn(C)c2n1` [Example 2.96, 4-((3-Bromo-6-methoxy-1-methyl-1H-pyrazolo[3,4-d]pyrimidin-4-yl)aminomethyl)-benzenesulfonamide], the IC50 at ENPP3 and on human ENPP1 was under 0.1 µM each time.

With `CCOc1nc(NCc2ccc(S(N)(=O)=O)cc2)c2c(Br)nn(C)c2n1` [Example 2.97, 4-((3-Bromo-6-ethoxy-1-methyl-1H-pyrazolo[3,4-d]pyrimidin-4-yl)aminomethyl)-benzenesulfonamide], the IC50 on ENPP3 and against human ENPP1 was under 0.1 µM in each case.

Take `CCn1ncc2c(NCc3ccc(S(N)(=O)=O)cc3)nc(OCCC(C)(C)OC)nc21` [Example 2.98, 4-((1-Ethyl-6-(3-methoxy-3-methylbutoxy)-1H-pyrazolo[3,4-d]pyrimidin-4-yl)aminomethyl)-benzenesulfonamide]: the IC50 against ENPP3 was 1 to 20 µM; against human ENPP1, under 0.1 µM.

On to `Cn1ncc2c(NCc3ccc(S(N)(=O)=O)cc3)nc(OCC(F)(F)F)nc21` [Example 2.99, 4-((6-(2,2,2-Trifluoroethoxy)-1-methyl-1H-pyrazolo[3,4-d]pyrimidin-4-yl)aminomethyl)-benzenesulfonamide], for which the IC50 against ENPP3 and at human ENPP1 was 0.1 to 1 µM throughout.

Regarding `CC(C)CCOc1nc(NCc2ccc(S(N)(=O)=O)cc2)c2cnn(C)c2n1` [Example 2.101, 4-((1-Methyl-6-(3-methylbutoxy)-1H-pyrazolo[3,4-d]pyrimidin-4-yl)aminomethyl)-benzenesulfonamide], the values for the IC50 against ENPP3 and against human ENPP1 were 0.1 to 1 µM and under 0.1 µM, respectively.

`CCn1ncc2c(NCc3ccc(S(N)(=O)=O)cc3)nc(OCCC(C)C)nc21` [Example 2.102, 4-((1-Ethyl-6-(3-methylbutoxy)-1H-pyrazolo[3,4-d]pyrimidin-4-yl)aminomethyl)-benzenesulfonamide]: the IC50 against ENPP3 was 0.1 to 1 µM; against human ENPP1 it was under 0.1 µM.

Turning to `CSc1nc(NCc2ccc(S(N)(=O)=O)cc2)c2cnn(C)c2n1` [Example 2.107, 4-((1-Methyl-6-(methylsulfanyl)-1H-pyrazolo[3,4-d]pyrimidin-4-yl)aminomethyl)-benzenesulfonamide], the IC50 at ENPP3 and against human ENPP1 was under 0.1 µM each time.

For the compound `CCSc1nc(NCc2ccc(S(N)(=O)=O)cc2)c2cnn(C)c2n1` [Example 2.108, 4-((6-(Ethylsulfanyl)-1-methyl-1H-pyrazolo[3,4-d]pyrimidin-4-yl)aminomethyl)-benzenesulfonamide], the concentration for half-maximal inhibition (IC50) at ENPP3 and against human ENPP1 was under 0.1 µM each time.
